For this data set, the system named is L929 cells. The experiment in a line: Cytotoxicity in accordance with ISO 10993-5:2009 with L929 cells. To be noted: prepolymer A cured with an equivalent amount of curing agent. The data set is classed as cell-based. On the procedure: The prepolymer A was cured with an equivalent amount of 2. The cytotoxicity was measured in accordance with ISO 10993-5:2009 with L929 cells. […] The system can therefore not be classed as being cytotoxic.

The structures appear in SMILES notation.

With `CCOC(=O)CC(NCCCCCCNCCCCCCNC(CC(=O)OCC)C(=O)OCC)C(=O)OCC` (stereo not shown) [Curing agent 2, triethyl 4-oxo-3-oxa-7,14,21-triazatricosane-6,22,23-tricarboxylate], the “Cytotoxicity (cell viability)” value is on record as “No reduction in cell viability”.

The values are drawn from patent US9421298B2, “Tissue adhesive based on nitrogen-modified aspartates” (Adhesys Medical GmbH, priority 2011, dated 2016).
